ChEMBL document CHEMBL1133591, “Potent derivatives of glucagon-like peptide-1 with pharmacokinetic properties suitable for once daily administration” (J Med Chem, 2000)
Numbered stars: 1 amine (or outer) side, 2 acyl side, 3 side chain; on linkers, the order of the positions; unused ones are H or OH. Side chains are listed from the residue outwards. Peptide text beside a SMILES is read from it. * marks the point of attachment. ξ: configuration not given here. Desaminohistidyl = O=C(CCc1c[nH]cn1)*; ξγGlu = O=C(O)C(CCC(=O)[*:2])N[*:1]; Palmitoyl = CCCCCCCCCCCCCCCC(=O)*; Octanoyl = CCCCCCCC(=O)*

Target: Glucagon-like peptide 1 receptor (Homo sapiens, UniProt P43220)
Test: Potency measured using recombinant human GLP-1 receptor expressed in Baby Hamster Kidney (BHK)cells
Assay type: cell-based

Sequence of Glucagon-like peptide 1 receptor (P43220 whole entry): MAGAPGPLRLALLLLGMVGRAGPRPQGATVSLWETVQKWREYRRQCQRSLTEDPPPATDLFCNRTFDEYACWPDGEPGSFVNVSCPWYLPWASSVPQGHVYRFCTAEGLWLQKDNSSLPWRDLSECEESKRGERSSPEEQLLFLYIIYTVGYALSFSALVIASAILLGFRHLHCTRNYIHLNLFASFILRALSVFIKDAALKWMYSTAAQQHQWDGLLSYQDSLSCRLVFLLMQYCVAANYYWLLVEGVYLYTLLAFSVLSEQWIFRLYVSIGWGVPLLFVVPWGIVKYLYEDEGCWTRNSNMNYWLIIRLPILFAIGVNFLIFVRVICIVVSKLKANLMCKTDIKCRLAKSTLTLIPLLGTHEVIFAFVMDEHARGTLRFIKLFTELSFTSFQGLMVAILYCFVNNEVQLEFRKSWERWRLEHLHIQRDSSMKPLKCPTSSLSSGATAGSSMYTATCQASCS

Question: How did the EC50 turn out when CCCCCCCCCCCCCCCC(=O)NC(CCC(=O)NCCCC[C@H](NC(=O)[C@@H](N)Cc1c[nH]cn1)C(=O)N[C@@H](CCC(=O)O)C(=O)NCC(=O)N[C@H](C(=O)N[C@@H](Cc1ccccc1)C(=O)N[C@H](C(=O)N[C@@H](CO)C(=O)N[C@@H](CC(=O)O)C(=O)N[C@H](C(=O)N[C@@H](CO)C(=O)N[C@@H](CO)C(=O)N[C@@H](Cc1ccc(O)cc1)C(=O)N[C@@H](CC(C)C)C(=O)N[C@@H](CCC(=O)O)C(=O)NCC(=O)N[C@@H](CCC(N)=O)C(=O)N[C@@H](C)C(=O)N[C@@H](C)C(=O)N[C@@H](CCCN=C(N)N)C(=O)N[C@@H](CCC(=O)O)C(=O)N[C@@H](Cc1ccccc1)C(=O)N[C@H](C(=O)N[C@@H](C)C(=O)N[C@@H](Cc1c[nH]c2ccccc12)C(=O)N[C@@H](CC(C)C)C(=O)N[C@H](C(=O)N[C@@H](CCCN=C(N)N)C(=O)NCC(=O)N[C@@H](CCCN=C(N)N)C(=O)NCC(=O)O)C(C)C)[C@@H](C)CC)C(C)C)[C@@H](C)O)[C@@H](C)O)C(=O)O (stereo not given in full) was run?
Answer: Its EC50 is 1.26 nM.

Question: How did the EC50 turn out when CCCCCCCCCCCCCCCC(=O)NC(CCC(=O)NCCCCC(NC(=O)CNC(=O)[C@H](CCCN=C(N)N)NC(=O)CNC(=O)[C@H](CCCN=C(N)N)NC(=O)[C@@H](NC(=O)[C@H](CC(C)C)NC(=O)[C@H](Cc1c[nH]c2ccccc12)NC(=O)[C@H](C)NC(=O)[C@@H](NC(=O)[C@H](Cc1ccccc1)NC(=O)[C@H](CCC(=O)O)NC(=O)[C@H](CCCN=C(N)N)NC(=O)[C@H](C)NC(=O)[C@H](C)NC(=O)[C@H](CCC(N)=O)NC(=O)CNC(=O)[C@H](CCC(=O)O)NC(=O)[C@H](CC(C)C)NC(=O)[C@H](Cc1ccc(O)cc1)NC(=O)[C@H](CO)NC(=O)[C@H](CO)NC(=O)[C@@H](NC(=O)[C@H](CC(=O)O)NC(=O)[C@H](CO)NC(=O)[C@@H](NC(=O)[C@H](Cc1ccccc1)NC(=O)[C@@H](NC(=O)CNC(=O)[C@H](CCC(=O)O)NC(=O)[C@H](C)NC(=O)[C@@H](N)Cc1c[nH]cn1)[C@@H](C)O)[C@@H](C)O)C(C)C)[C@@H](C)CC)C(C)C)C(=O)O)C(=O)O (stereo not given in full) was run?
Answer: Its EC50 is 0.053 nM.

Question: CCCCCCCCCCCCCCCC(=O)NC(CCC(=O)NCCCCC(NC(=O)[C@H](CCC(=O)O)NC(=O)[C@H](CCCN=C(N)N)NC(=O)CNC(=O)[C@H](CCCN=C(N)N)NC(=O)[C@@H](NC(=O)[C@H](CC(C)C)NC(=O)[C@H](Cc1c[nH]c2ccccc12)NC(=O)[C@H](C)NC(=O)[C@@H](NC(=O)[C@H](Cc1ccccc1)NC(=O)[C@H](CCC(=O)O)NC(=O)[C@H](CCCN=C(N)N)NC(=O)[C@H](C)NC(=O)[C@H](C)NC(=O)[C@H](CCC(N)=O)NC(=O)CNC(=O)[C@H](CCC(=O)O)NC(=O)[C@H](CC(C)C)NC(=O)[C@H](Cc1ccc(O)cc1)NC(=O)[C@H](CO)NC(=O)[C@H](CO)NC(=O)[C@@H](NC(=O)[C@H](CC(=O)O)NC(=O)[C@H](CO)NC(=O)[C@@H](NC(=O)[C@H](Cc1ccccc1)NC(=O)[C@@H](NC(=O)CNC(=O)[C@H](CCC(=O)O)NC(=O)[C@H](C)NC(=O)[C@@H](N)Cc1c[nH]cn1)[C@@H](C)O)[C@@H](C)O)C(C)C)[C@@H](C)CC)C(C)C)C(=O)O)C(=O)O (stereo not given in full) was tested. Which EC50 did it give?
Answer: Its EC50 is 0.0272 nM.

Question: With CCCCCCCCCCCCCCCCCC(=O)NC(CCC(=O)NCCCCC(NC(=O)CNC(=O)[C@H](CCCN=C(N)N)NC(=O)CNC(=O)[C@H](CCCN=C(N)N)NC(=O)[C@@H](NC(=O)[C@H](CC(C)C)NC(=O)[C@H](Cc1c[nH]c2ccccc12)NC(=O)[C@H](C)NC(=O)[C@@H](NC(=O)[C@H](Cc1ccccc1)NC(=O)[C@H](CCC(=O)O)NC(=O)[C@H](CCCN=C(N)N)NC(=O)[C@H](C)NC(=O)[C@H](C)NC(=O)[C@H](CCC(N)=O)NC(=O)CNC(=O)[C@H](CCC(=O)O)NC(=O)[C@H](CC(C)C)NC(=O)[C@H](Cc1ccc(O)cc1)NC(=O)[C@H](CO)NC(=O)[C@H](CO)NC(=O)[C@@H](NC(=O)[C@H](CC(=O)O)NC(=O)[C@H](CO)NC(=O)[C@@H](NC(=O)[C@H](Cc1ccccc1)NC(=O)[C@@H](NC(=O)CNC(=O)[C@H](CCC(=O)O)NC(=O)[C@H](C)NC(=O)[C@@H](N)Cc1c[nH]cn1)[C@@H](C)O)[C@@H](C)O)C(C)C)[C@@H](C)CC)C(C)C)C(=O)O)C(=O)O (stereo not given in full) as the compound, how does the EC50 read?
Answer: Its EC50 is 0.115 nM.

Question: CCCCCCCCCCCCCCCC(=O)NC(CCC(=O)NCCCC[C@H](NC(=O)[C@H](C)NC(=O)[C@H](C)NC(=O)[C@H](CCC(N)=O)NC(=O)CNC(=O)[C@H](CCC(=O)O)NC(=O)[C@H](CC(C)C)NC(=O)[C@H](Cc1ccc(O)cc1)NC(=O)[C@H](CO)NC(=O)[C@H](CO)NC(=O)[C@@H](NC(=O)[C@H](CC(=O)O)NC(=O)[C@H](CO)NC(=O)[C@@H](NC(=O)[C@H](Cc1ccccc1)NC(=O)[C@@H](NC(=O)CNC(=O)[C@H](CCC(=O)O)NC(=O)[C@H](C)NC(=O)CCc1c[nH]cn1)[C@@H](C)O)[C@@H](C)O)C(C)C)C(=O)N[C@@H](CCC(=O)O)C(=O)N[C@@H](Cc1ccccc1)C(=O)N[C@H](C(=O)N[C@@H](C)C(=O)N[C@@H](Cc1c[nH]c2ccccc12)C(=O)N[C@@H](CC(C)C)C(=O)N[C@H](C(=O)N[C@@H](CCCN=C(N)N)C(=O)NCC(=O)N[C@@H](CCCN=C(N)N)C(=O)NCC(=O)O)C(C)C)[C@@H](C)CC)C(=O)O (stereo not given in full) was tested. Which EC50 did it give?
Answer: The EC50 was 0.687 nM.

Question: With CCCCCCCCCC(CCCCC(=O)NCCCCC(NC(=O)CNC(=O)[C@H](CCCN=C(N)N)NC(=O)CNC(=O)[C@H](CCCN=C(N)N)NC(=O)[C@@H](NC(=O)[C@H](CC(C)C)NC(=O)[C@H](Cc1c[nH]c2ccccc12)NC(=O)[C@H](C)NC(=O)[C@@H](NC(=O)[C@H](Cc1ccccc1)NC(=O)[C@H](CCC(=O)O)NC(=O)[C@H](CCCN=C(N)N)NC(=O)[C@H](C)NC(=O)[C@H](C)NC(=O)[C@H](CCC(N)=O)NC(=O)CNC(=O)[C@H](CCC(=O)O)NC(=O)[C@H](CC(C)C)NC(=O)[C@H](Cc1ccc(O)cc1)NC(=O)[C@H](CO)NC(=O)[C@H](CO)NC(=O)[C@@H](NC(=O)[C@H](CC(=O)O)NC(=O)[C@H](CO)NC(=O)[C@@H](NC(=O)[C@H](Cc1ccccc1)NC(=O)[C@@H](NC(=O)CNC(=O)[C@H](CCC(=O)O)NC(=O)[C@H](C)NC(=O)[C@@H](N)Cc1c[nH]cn1)[C@@H](C)O)[C@@H](C)O)C(C)C)[C@@H](C)CC)C(C)C)C(=O)O)C(=O)O (stereo not given in full) as the compound, how does the EC50 read?
Answer: The EC50 was 0.0056 nM.

Question: How did the EC50 turn out when CCCCCCCC(=O)NCCCC[C@H](NC(=O)[C@@H](NC(=O)[C@H](CC(C)C)NC(=O)[C@H](Cc1c[nH]c2ccccc12)NC(=O)[C@H](C)NC(=O)[C@@H](NC(=O)[C@H](Cc1ccccc1)NC(=O)[C@H](CCC(=O)O)NC(=O)[C@H](CCCN=C(N)N)NC(=O)[C@H](C)NC(=O)[C@H](C)NC(=O)[C@H](CCC(N)=O)NC(=O)CNC(=O)[C@H](CCC(=O)O)NC(=O)[C@H](CC(C)C)NC(=O)[C@H](Cc1ccc(O)cc1)NC(=O)[C@H](CO)NC(=O)[C@H](CO)NC(=O)[C@@H](NC(=O)[C@H](CC(=O)O)NC(=O)[C@H](CO)NC(=O)[C@@H](NC(=O)[C@H](Cc1ccccc1)NC(=O)[C@@H](NC(=O)CNC(=O)[C@H](CCC(=O)O)NC(=O)[C@H](C)NC(=O)CCc1c[nH]cn1)[C@@H](C)O)[C@@H](C)O)C(C)C)[C@@H](C)CC)C(C)C)C(=O)NCC(=O)N[C@@H](CCCN=C(N)N)C(=O)NCC(=O)O (Desaminohistidyl-AEGTFTSDVSSYLEGQAAREFIAWLVK(Octanoyl)GRG-OH) was run?
Answer: Its EC50 is 0.236 nM.

Question: With CCCCCCCC(=O)NC(CCC(=O)NCCCC[C@H](NC(=O)[C@@H](NC(=O)[C@H](CC(C)C)NC(=O)[C@H](Cc1c[nH]c2ccccc12)NC(=O)[C@H](C)NC(=O)[C@@H](NC(=O)[C@H](Cc1ccccc1)NC(=O)[C@H](CCC(=O)O)NC(=O)[C@H](CCCN=C(N)N)NC(=O)[C@H](C)NC(=O)[C@H](C)NC(=O)[C@H](CCC(N)=O)NC(=O)CNC(=O)[C@H](CCC(=O)O)NC(=O)[C@H](CC(C)C)NC(=O)[C@H](Cc1ccc(O)cc1)NC(=O)[C@H](CO)NC(=O)[C@H](CO)NC(=O)[C@@H](NC(=O)[C@H](CC(=O)O)NC(=O)[C@H](CO)NC(=O)[C@@H](NC(=O)[C@H](Cc1ccccc1)NC(=O)[C@@H](NC(=O)CNC(=O)[C@H](CCC(=O)O)NC(=O)[C@H](C)NC(=O)CCc1c[nH]cn1)[C@@H](C)O)[C@@H](C)O)C(C)C)[C@@H](C)CC)C(C)C)C(=O)NCC(=O)N[C@@H](CCCN=C(N)N)C(=O)NCC(=O)O)C(=O)O (stereo not given in full) (Desaminohistidyl-AEGTFTSDVSSYLEGQAAREFIAWLVK([ξγGlu-Octanoyl])GRG-OH) as the compound, how does the EC50 read?
Answer: Its EC50 is 0.169 nM.

Question: For CCCCCCCCCCCCCCCC(=O)NC(CCC(=O)NCCCC[C@H](NC(=O)[C@@H](NC(=O)[C@H](CC(C)C)NC(=O)[C@H](Cc1c[nH]c2ccccc12)NC(=O)[C@H](C)NC(=O)[C@@H](NC(=O)[C@H](Cc1ccccc1)NC(=O)[C@H](CCC(=O)O)NC(=O)[C@H](CCCN=C(N)N)NC(=O)[C@H](C)NC(=O)[C@H](C)NC(=O)[C@H](CCC(N)=O)NC(=O)CNC(=O)[C@H](CCC(=O)O)NC(=O)[C@H](CC(C)C)NC(=O)[C@H](Cc1ccc(O)cc1)NC(=O)[C@H](CO)NC(=O)[C@H](CO)NC(=O)[C@@H](NC(=O)[C@H](CC(=O)O)NC(=O)[C@H](CO)NC(=O)[C@@H](NC(=O)[C@H](Cc1ccccc1)NC(=O)[C@@H](NC(=O)CNC(=O)[C@H](CCC(=O)O)NC(=O)[C@H](C)NC(=O)CCc1c[nH]cn1)[C@@H](C)O)[C@@H](C)O)C(C)C)[C@@H](C)CC)C(C)C)C(=O)NCC(=O)N[C@@H](CCCN=C(N)N)C(=O)NCC(=O)O)C(=O)O (stereo not given in full) (Desaminohistidyl-AEGTFTSDVSSYLEGQAAREFIAWLVK([ξγGlu-Palmitoyl])GRG-OH), which EC50 is on record?
Answer: Its EC50 is 2.36 nM.

Question: How did the EC50 turn out when CCCCCCCCCCCCCCCC(=O)NC(CCC(=O)NCCCC[C@H](NC(=O)[C@H](CO)NC(=O)[C@@H](NC(=O)[C@H](CC(=O)O)NC(=O)[C@H](CO)NC(=O)[C@@H](NC(=O)[C@H](Cc1ccccc1)NC(=O)[C@@H](NC(=O)CNC(=O)[C@H](CCC(=O)O)NC(=O)[C@H](C)NC(=O)[C@@H](N)Cc1c[nH]cn1)[C@@H](C)O)[C@@H](C)O)C(C)C)C(=O)N[C@@H](Cc1ccc(O)cc1)C(=O)N[C@@H](CC(C)C)C(=O)N[C@@H](CCC(=O)O)C(=O)NCC(=O)N[C@@H](CCC(N)=O)C(=O)N[C@@H](C)C(=O)N[C@@H](C)C(=O)N[C@@H](CCCN=C(N)N)C(=O)N[C@@H](CCC(=O)O)C(=O)N[C@@H](Cc1ccccc1)C(=O)N[C@H](C(=O)N[C@@H](C)C(=O)N[C@@H](Cc1c[nH]c2ccccc12)C(=O)N[C@@H](CC(C)C)C(=O)N[C@H](C(=O)N[C@@H](CCCN=C(N)N)C(=O)NCC(=O)N[C@@H](CCCN=C(N)N)C(=O)NCC(=O)O)C(C)C)[C@@H](C)CC)C(=O)O (stereo not given in full) (H-HAEGTFTSDVSK([ξγGlu-Palmitoyl])YLEGQAAREFIAWLVRGRG-OH) was run?
Answer: The EC50 was 0.0352 nM.
